From ChEMBL document CHEMBL1122981, “Specific inhibition of benzodiazepine receptor binding by some N-(indol-3-ylglyoxylyl)amino acid derivatives” (J Med Chem, 1985) come the findings set out here.

Assay [1] concerns the target GABA-A receptor; anion channel (Bos taurus) (UniProt P10063+P08220+P20237+P08219+P10064+P22300). The assay can be described thus: Inhibition of specific [3H]flunitrazepam binding to benzodiazepine receptor at 250 uM. The format is protein-complex assay.
The target of assay [2] is GABA-A receptor; anion channel. As to the kind of experiment: Inhibition of [3H]flunitrazepam binding to GABA-A central Benzodiazepine receptor of bovine brain membranes. The format is cell membranes, Bos taurus.

One may read the inhibition as how much of the control response was suppressed. Low values mean little suppression, high ones strong suppression. Usually IC50 stands for the point on the concentration scale where inhibition reaches its midpoint. The low end stands for greater potency, the high end for weaker potency.

In turn, `O=C(NC(Cc1ccc(O)cc1)C(=O)O)C(=O)c1c[nH]c2ccccc12` (stereo not drawn) showed an inhibition in assay [1] of 27%.

Regarding `O=C(NC(Cc1ccc(O)cc1)C(=O)O)C(=O)c1c[nH]c2ccc(Br)cc12` (stereo not drawn), the inhibition in assay [1] came out at 37%. Same read-out and setting: to `CCOC(=O)C(Cc1c[nH]c2ccccc12)NC(=O)C(=O)c1c[nH]c2ccccc12` (stereo not drawn) belongs 70%; to `COc1ccc2[nH]cc(C(=O)C(=O)NC(Cc3ccccc3)C(=O)O)c2c1` (stereo not drawn), 38%. Regarding `CNC1=Nc2ccc(Cl)cc2C(c2ccccc2)=[N+]([O-])C1` [CHLORDIAZEPOXIDE], the IC50 in assay [2] turned out to be 1.1 µM. For the compound `O=C(NC(Cc1ccc(O)cc1)C(=O)O)C(=O)c1c[nH]c2ccc(Cl)cc12` (stereo not drawn), the inhibition in assay [1] came to 67%. Same read-out and setting: with `CCOC(=O)C(NC(=O)C(=O)c1c[nH]c2ccc(OC)cc12)C(C)C` (stereo not drawn) the figure was 66%; with `CCOC(=O)C(Cc1c[nH]c2cc([N+](=O)[O-])ccc12)NC(=O)C(=O)c1c[nH]c2ccccc12` (stereo not drawn), 48%. As to `CCOC(=O)C(C)NC(=O)C(=O)c1c[nH]c2ccc(Br)cc12` (stereo not drawn), in assay [1], the inhibition was determined as 100%. For the same compound, in assay [2], the IC50 came to 4.8 µM. Regarding `CC(NC(=O)C(=O)c1c[nH]c2ccccc12)C(=O)O` (stereo not drawn), in assay [1], the inhibition was determined as 72%. On the same count and under the same terms, to `CCOC(=O)C(Cc1c[nH]c2ccccc12)NC(=O)C(=O)c1c[nH]c2ccc(Cl)cc12` (stereo not drawn) belongs 55%; to `CCOC(=O)C(C)NC(=O)C(=O)c1c[nH]c2ccccc12` (stereo not drawn), 80%.

In turn, `CCOC(=O)C(Cc1ccc(O)cc1)NC(=O)C(=O)c1c[nH]c2ccc(Cl)cc12` (stereo not drawn) showed an inhibition in assay [1] of 89%. Besides, the IC50 in assay [2] came to 80 µM. Compound `COc1ccc2[nH]cc(C(=O)C(=O)NC(C(=O)O)C(C)C)c2c1` (stereo not drawn) displayed an inhibition in assay [1] of 12%. As to `CC(C)C(NC(=O)C(=O)c1c[nH]c2ccc(Cl)cc12)C(=O)O` (stereo not drawn), in assay [1], the inhibition amounted to 68%. In turn, `CC(C)C(NC(=O)C(=O)c1c[nH]c2ccc([N+](=O)[O-])cc12)C(=O)O` (stereo not drawn) displayed an inhibition in assay [1] of 83%. The same compound had an IC50 in assay [2] of 60 µM. `O=C(NC(Cc1c[nH]c2ccccc12)C(=O)O)C(=O)c1c[nH]c2ccc(Cl)cc12` (stereo not drawn): in assay [1], the inhibition worked out at 61%. In assay [1], `COC(=O)C(Cc1ccc(O)cc1)NC(=O)C(=O)c1c[nH]c2ccc([N+](=O)[O-])cc12` (stereo not drawn) gave an inhibition of 100%. In addition, the IC50 in assay [2] came to 20 µM. For the compound `CCOC(=O)CNC(=O)C(=O)c1c[nH]c2ccccc12`, in assay [1], the inhibition turned out to be 84%. Take `CCOC(=O)CNC(=O)C(=O)c1c[nH]c2ccc(Cl)cc12`: the inhibition in assay [1] was determined as 100%. The half-inhibitory concentration (IC50) in assay [2] is 5.4 µM. In assay [1], `O=C(NC(Cc1c[nH]c2ccccc12)C(=O)O)C(=O)c1c[nH]c2ccc(Br)cc12` (stereo not drawn) yielded an inhibition of 66%. Same read-out and setting: with `CCOC(=O)C(NC(=O)C(=O)c1c[nH]c2ccc(Br)cc12)C(C)C` (stereo not drawn) the figure was 88%.

`CC(NC(=O)C(=O)c1c[nH]c2ccc([N+](=O)[O-])cc12)C(=O)O` (stereo not drawn) returned an inhibition in assay [1] of 94%. The compound also showed an IC50 in assay [2] of 6.2 µM.

In assay [1], `O=C(NC(Cc1ccc(O)cc1)C(=O)O)C(=O)c1c[nH]c2ccc([N+](=O)[O-])cc12` (stereo not drawn) had an inhibition of 81%. Besides, the half-inhibitory concentration (IC50) in assay [2] was found to be 75 µM. For the compound `CCOC(=O)C(C)NC(=O)C(=O)c1c[nH]c2ccc(Cl)cc12` (stereo not drawn), the inhibition in assay [1] worked out at 100%. The compound also came in with a 50% inhibitory concentration (IC50) in assay [2] of 0.5 µM. In assay [2], `O=C1CN=C(c2ccccc2)c2cc([N+](=O)[O-])ccc2N1` [NITRAZEPAM] gave a half-maximal inhibitory concentration (IC50) of 0.038 µM. In assay [1], `O=C(O)CNC(=O)C(=O)c1c[nH]c2ccccc12` came in with an inhibition of 20%. Turning to `CC(C)C(NC(=O)C(=O)c1c[nH]c2ccc(Br)cc12)C(=O)O` (stereo not drawn), the inhibition in assay [1] came out at 72%.

`CN1C(=O)CN=C(c2ccccc2)c2cc(Cl)ccc21` [DIAZEPAM]: in assay [2], the half-inhibitory concentration (IC50) was 0.041 µM. In the case of `O=C(NC(Cc1ccccc1)C(=O)O)C(=O)c1c[nH]c2ccc(Br)cc12` (stereo not drawn), the inhibition in assay [1] is 62%. As to `CC(NC(=O)C(=O)c1c[nH]c2ccc(Cl)cc12)C(=O)O` (stereo not drawn), in assay [1], the inhibition is 93%. This compound also came in with a half-inhibitory concentration (IC50) in assay [2] of 22 µM. Compound `CCOC(=O)C(Cc1c[nH]c2ccccc12)NC(=O)C(=O)c1c[nH]c2ccc(Br)cc12` (stereo not drawn) yielded an inhibition in assay [1] of 100%. In addition, the 50% inhibitory concentration (IC50) in assay [2] amounted to 22 µM. Compound `CCOC(=O)C(Cc1c[nH]c2ccccc12)NC(=O)C(=O)c1c[nH]c2ccc([N+](=O)[O-])cc12` (stereo not drawn) displayed an inhibition in assay [1] of 59%.

`CCOC(=O)C(C)NC(=O)C(=O)c1c[nH]c2ccc([N+](=O)[O-])cc12` (stereo not drawn) yielded an inhibition in assay [1] of 100%. In addition, the 50% inhibitory concentration (IC50) in assay [2] is 0.2 µM.

Turning to `O=C(NC(Cc1c[nH]c2ccccc12)C(=O)O)C(=O)c1c[nH]c2ccccc12` (stereo not drawn), the inhibition in assay [1] amounted to 11%. Regarding `COC(=O)C(Cc1ccc(O)cc1)NC(=O)C(=O)c1c[nH]c2ccccc12` (stereo not drawn), the inhibition in assay [1] came out at 50%. Compound `CCOC(=O)CNC(=O)C(=O)c1c[nH]c2ccc(Br)cc12` returned an inhibition in assay [1] of 100%. The compound also displayed a half-inhibitory concentration (IC50) in assay [2] of 2 µM. For the compound `CCOC(=O)C(NC(=O)C(=O)c1c[nH]c2ccc(Cl)cc12)C(C)C` (stereo not drawn), the inhibition in assay [1] came out at 62%. Same read-out and setting: with `CCOC(=O)C(Cc1ccccc1)NC(=O)C(=O)c1c[nH]c2ccc(Br)cc12` (stereo not drawn) the figure was 65%; with `O=C(NC(Cc1c[nH]c2cc([N+](=O)[O-])ccc12)C(=O)O)C(=O)c1c[nH]c2ccccc12` (stereo not drawn), 31%.

`CC(C)C(NC(=O)C(=O)c1c[nH]c2ccccc12)C(=O)O` (stereo not drawn) yielded an inhibition in assay [1] of 28%. `CCOC(=O)C(NC(=O)C(=O)c1c[nH]c2ccccc12)C(C)C` (stereo not drawn): the inhibition in assay [1] was determined as 77%. In the case of `CCOC(=O)C(Cc1ccc(O)cc1)NC(=O)C(=O)c1c[nH]c2ccc(Br)cc12` (stereo not drawn), in assay [1], the inhibition came to 68%.

As for `CCOC(=O)C(Cc1ccccc1)NC(=O)C(=O)c1c[nH]c2ccc(OC)cc12` (stereo not drawn), the inhibition in assay [1] is 60%. `O=C(O)CNC(=O)C(=O)c1c[nH]c2ccc(Cl)cc12`: the inhibition in assay [1] was 82%. Besides, in assay [2], the IC50 was determined as 38 µM.
